Experimental data: patent US10968214B2, “KRas G12C inhibitors” (Eli Lilly and Company, priority 2018, dated 2021)
Read-outs that look alike come from different tables or passages of the source.

How the values were obtained:
[1] = molecular target: T1, active KRas in H2122 xenograft tumors (Homo sapiens, UniProt P01116, G12C); assay: In vivo target inhibition/PD, H2122 xenograft, active KRas; conditions: NCI-H2122, mouse; for inhibition at 10 mg/kg: 10 mg/kg single dose; for inhibition at 30 mg/kg: 30 mg/kg single dose
T1 construct: from tissue; host or cells: H2122 xenograft tumours from nude mice
Method: To evaluate in vivo target inhibition and anti-tumor efficacy of a compound, Human lung cancer cells, H358 or H2122 are implanted into nude mice xenograft tumor models. Either H358 or H2122 cells (10×10^6 in a 1:1 Matrigel® mix, 0.2 mL total volume) are implanted by subcutaneous injection in hind leg of nude female mice (Harlan Laboratories). A total of 5 mice each group are used for efficacy study, and a total of 3-4 mice each group are used for target engagement and PD study. Treatment is initiated with oral administration (gavage) of a test compound or vehicle (20% Captisol®, 25 mM phosphate, pH 2.0 in 0.2 mL volume when the tumor size reaches approximately […]. Tumor growth and body weight are monitored over time to evaluate efficacy and signs of toxicity. Bidimensional measurements of tumors are performed twice a week and tumor volumes are calculated based on mid-axis length and mid-axis width. Tumor volume data are transformed to a log scale to equalize variance across time and treatment groups. The log volume data are analyzed with a two-way repeated measures analysis of variance by time and treatment using the mixed procedures in SAS software (version 8.2). The correlation model for the repeated measures is spatial power. Treated groups are compared to the control group at each time point. The mixed procedure is also used separately for each treatment group to calculate adjusted means and standard errors at each time point. Both analyses account for the autocorrelation within each animal. The adjusted means and standard errors are plotted for each treatment group versus time.
For in vivo target inhibition and PD analysis, tumors are ground by mortar and pestle on dry ice and tumor fragments are added to 800 μL of lysis buffer containing 1% Triton X100, 25 mM Tris pH 7.5, 150 mM NaCl, 1 mM EDTA, and 1 mM EGTA with Halt protease and phosphatase inhibitor cocktail (Thermo Scientific, cat. no. 1861281) in lysing matrix D tubes (MP Biomedical®, cat. no. 6913-500) with one additional large bead (MP Biomedical® ¼″ ceramic sphere bead cat. no. 6540-412) per tube. Tumor fragments are homogenized in a Thermo Bio101® fast prep (FP120) at setting 4 for […] while cold for a total of 2 times. Lysates are spun at 14,000 rpm for 10 min at 4° C. to clarify. Protein estimation is done on the lysate supernatant using a BioRad Dc® protein assay and lysates are diluted in complete lysis/binding buffer from the Ras GTPase Chemi ELISA Kit® (Active Motif, cat. no. 52097). The active KRas ELISA was performed as follows: Glutathione-coated ELISA wells were incubated with diluted RAF1-GST in complete lysis/binding buffer for 1 hr at 4° C. with gentle agitation. Wells are washed 3 times with wash buffer and 100 μg of lysates are added to each well and incubated at RT for 1 hr with mild agitation. The wells are washed an additional 3 times, then primary antibody, diluted in antibody binding buffer, is added to each well. The plates are incubated for 1 hr. The wells are washed 3 more times before adding HRP-conjugated secondary antibody, diluted in antibody binding buffer, to each well. The plates are incubated at RT for 1 hr. ELISA wells are washed 4 times, chemiluminescent reagents is added and then luminescence is read. For pERK Meso Scale Discovery ELISA, 25 μg of protein containing 0.1% SDS is used; for pMEK Meso Scale Discovery ELISA, 50 μg of protein without SDS is used. Meso Scale Discovery Whole Cell Lysate Kits for pERK and pMEK are provided by Meso Scale Discovery.
After a single dose, the tumor samples are harvested at different time points. The tumor lysates are prepared as described above. The inhibition of pERK, pMEK, and active KRas is measured as described above.

SW1463 = assay: Combination 4 day growth assay (Cell TiterGlo), SW1463; type: cell-based; conditions: Homo sapiens, SW1463, 96 h, single treatment, read-out: Absolute IC50
Method: (§1) Cell lines for this study are obtained from ATCC and grown under ATCC recommended conditions, except for LXFA-983L, which is obtained from Oncotest/Charles Rivers Laboratories, Wilmington, Mass. and D122-96, which is obtained from L. Eisenbach (Weizman Institute of Science, Rehovot, Israel)—both grown under recommended conditions. […] The proliferation assay is performed as a 4 day growth assay using Cell TiterGlo® as the readout. Briefly, cells are plated in 96-well cell culture plates and allowed to adhere overnight at 37° C. The following day, cells are treated with compounds, either single treatments or combination treatments. First, the testing compounds are serially diluted in DMSO, followed by dilution into media as a 5× concentration with 1% DMSO, and finally added to cells in media to dilute to 1×. The cells are incubated at 37° C. for 4 more days. At the end of the incubation period, Cell TiterGlo® reagent is mixed and added to the wells. After 10 minutes, the luminescence is read by a Perkin Elmer Envision instrument. Absolute IC50 values generated by a 4-parameter logistics model for the single and combination treatments are generated, followed by combination indexes for each combination treatment and cell line. The combination IC50 values are adjusted based on the total concentration of each compound when added together. […] The combination index (CI) measures the degree to which the potency of a combination therapy differs from the expected-if-additive potency and is based on the Loewe definition of additivity.
(§2) [formula] Where • CAy and CBy are the concentrations of therapies A and B that produce an effect, y, when given in combination • ICAy and ICBy are the concentrations of A and B that produce an effect, y, when given individually The biological interpretation of the combination index is as follows: synergistic if the combination index <0.5, additive if the combination index is between 0.5 and 2, and antagonistic if the combination index is >2.

MIA Paca-2 = assay: Combination 4 day growth assay (Cell TiterGlo), MIA Paca-2; type: cell-based; conditions: Homo sapiens, MIA PaCa-2, 96 h, single treatment, read-out: Absolute IC50
Method: as §1, §2

[2] = 2 hr, read-out: % Inhibition Active KRas
[3] = 4 hr, read-out: % Inhibition Active KRas
[4] = 8 hr, read-out: % Inhibition Active KRas
[5] = 12 hr, read-out: % Inhibition Active KRas
[6] = 24 hr, read-out: % Inhibition Active KRas

T1 sequence (P01116 1-188 isoform P01116-2 G12C): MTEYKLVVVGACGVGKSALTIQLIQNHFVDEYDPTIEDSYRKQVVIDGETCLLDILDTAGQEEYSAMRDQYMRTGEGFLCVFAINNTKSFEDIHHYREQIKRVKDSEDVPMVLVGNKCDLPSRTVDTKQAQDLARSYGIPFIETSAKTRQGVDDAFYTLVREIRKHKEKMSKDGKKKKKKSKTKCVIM

- inhibition at 10 mg/kg [1, 2]: 25.8%
- inhibition at 10 mg/kg [1, 3]: 32.3%
- inhibition at 10 mg/kg [1, 4]: 34.7%
- inhibition at 10 mg/kg [1, 5]: 37.1%
- inhibition at 10 mg/kg [1, 6]: 16.7%
- inhibition at 10 mg/kg ([1]; from 2-12 hr, read-out: active KRas inhibition): 26 to 37%
- inhibition at 30 mg/kg [1, 2]: 57.5%
- inhibition at 30 mg/kg [1, 3]: 78.8%
- inhibition at 30 mg/kg [1, 4]: 67%
- inhibition at 30 mg/kg [1, 5]: 46.5%
- inhibition at 30 mg/kg [1, 6]: 26.1%
- inhibition at 30 mg/kg ([1]; from 2-[…], read-out: active KRas inhibition): 26 to 79%
- inhibition at 100 mg/kg ([1]; 100 mg/kg single dose, 4 hr): 90.6%
- IC50 (SW1463): 0.0141 µM
- IC50 (MIA Paca-2): 0.022 µM
Compound: C=CC(=O)N1CCN(c2ncnc3c(F)c(-c4ccc(F)c5sc(N)nc45)c(Cl)cc23)CC1 [Example 1, 1-{4-[7-(2-Amino-7-fluoro-1,3-benzothiazol-4-yl)-6-chloro-8-fluoroquinazolin-4-yl]piperazin-1-yl}prop-2-en-1-one]
